Test results: PubChem BioAssay AID1963826 (Molecular Pharmacology Branch, DTP, NCI, 2024)

Tested on: 926638-142-R-J1-PDC complex spheroid viability
Assay: Anticancer human tumor 926638-142-R-J1-PDC patient-derived endometrial carcinoma cell line growth inhibition [POLQ]
Details: for IC50: curve of first compound; for viability, T/C: stronger effect = lower value
Method: Multicellular complex tumor spheroid response to Polymerase (POL) inhibitors (novobiocin, ART-558, RP6685) in combination with a variety of drugs and investigational agents in selected tumor cell lines
The POL inhibitors (novobiocin, ART-558, and RP6685) were evaluated both individually and in combination with standard of care and investigational anticancer small molecules within a complex spheroid model of solid tumors. . Complex spheroids include a stromal component modeled by human endothelial cells (HUVEC) and fibroblasts modeled by human mesenchymal stem cells (MSCs). The concentration ranges selected for each drug and investigational agent were based upon clinically achievable concentrations if the clinical Cmax of the agent was known.
Compounds. The drugs and investigational agents: novobiocin (NSC847541), ART-558 (NSC835418), RP-6685 (NSC848927), peposertib (NSC802822), ceralasertib (NSC780249), elimusertib (NSC800525), camonsertib (NSC841442), AZD-1390 (NSC803789), olaparib (NSC753686), talazoparib (NSC767125), rucaparib (NSC756644), sotorasib (NSC818433), MRTX-1133 (NSC836407), SN-38 (NSC673596), topotecan (NSC609699), epotoside (NSC141540), doxorubicin (NSC123127), gemcitabine (NSC613327), 5-fluorouracil (NSC19893), paclitaxel (NSC125973), vemurafenib (NSC761431), MSA-2 (NSC828583), SN-011 (NSC837082), adavosertib (NSC754352), prexasertib (NSC758257), carboplatin (NSC241240) and oxaliplatin (NSC266046), were obtained from the National Cancer Institute (NCI) Developmental Therapeutics Program Chemical Repository (21). The FDA-approved anticancer drug set is available from the Developmental Therapeutics Program at https://dtp.cancer.gov/organization/dscb/obtaining/. […] The stock solutions were prepared in dimethyl sulfoxide (DMSO, Sigma-Aldrich, St. Louis, MO, cat. D2650), except for the platinum compounds which were prepared in saline (Quality Biological, Gaithersburg, MD, cat. 114-055-101), at 800-fold the tested concentration and stored at -70 degrees C prior to their use. All drugs and investigational agents were tested over a range starting from a high concentration at or near the clinical Cmax and decreasing in half-log increments. If the clinical Cmax for an agent had not been determined, the highest concentration tested was 10 microM, except for SN-38, which was tested at a high concentration of 1 microM.
Cell Culture. All cells were maintained in an incubator at 37 degrees C and 5% CO2 with 95% humidity. The PDC lines were cultured according to standard operating procedures established by the NCI PDMR (https://pdmr.cancer.gov). Table 3 of the manuscript, lists the cell lines along with the number of the three cell types plated to form the mct-spheroids and media for tumor cell growth. After thawing, all PDC lines, except 997537-175-T-J1-PDC and 415267-285-R-J2-PDC, were cultured in Matrigel-coated flasks prepared with a working solution of 1X Ham's F-12 nutrient mix, without supplementation (Thermo Fisher Scientific, cat. 11765054), 100 U/mL penicillin-streptomycin (Thermo Fisher Scientific, cat. 15140122), and 2.5% Matrigel (Corning Inc., Corning, NY, cat. 354248) for the first three passages. The two PDC lines 997537-175-T-J1-PDC and 415267-285-R-J2-PDC were cultured on uncoated flasks. The 857933-349-R-J2-PDC line was cultured in 6C/Colon 1B media containing advanced DMEM/F-12 (Thermo Fisher Scientific, cat. 12634028), 10 mM HEPES (Thermo Fisher Scientific, cat. 15630080), 1X GlutaMAX supplement (Thermo Fisher Scientific, cat. 35050061), 0.1 mg/mL primocin (InvivoGen, San Diego, CA, cat. ant-pm-2), 10% defined fetal bovine serum, heat inactivated (HyClone Laboratories Inc., Logan, UT, cat. SH30070.03HI), 50% L-WRN conditioned media (ATCC, cat. CRL-3276), 1.25 mM N-Acetyl-L-cysteine (Sigma-Aldrich, cat. A9165), 10 mM nicotinamide (Sigma-Aldrich, cat. N0636), 1X B-27 supplement (Thermo Fisher Scientific, cat. 17504044), 1X N-2 supplement (Thermo Fisher Scientific, cat. […]

[1] = second compound 0.0316 µM, first compound 0.0316 µM
[2] = second compound 0.0316 µM, first compound 0.1 µM
[3] = second compound 0.0316 µM, first compound 0.316 µM
[4] = second compound 0.0316 µM, first compound 1 µM
[5] = second compound 0.1 µM, first compound 0.0316 µM
[6] = second compound 0.1 µM, first compound 0.1 µM
[7] = second compound 0.1 µM, first compound 0.316 µM
[8] = second compound 0.1 µM, first compound 1 µM
[9] = second compound 0.316 µM, first compound 0.0316 µM
[10] = second compound 0.316 µM, first compound 0.1 µM
[11] = second compound 0.316 µM, first compound 0.316 µM
[12] = second compound 0.316 µM, first compound 1 µM
[13] = second compound 1 µM, first compound 0.0316 µM
[14] = second compound 1 µM, first compound 0.1 µM
[15] = second compound 1 µM, first compound 0.316 µM
[16] = second compound 1 µM, first compound 1 µM
[17] = second compound 3.16 µM, first compound 0.0316 µM
[18] = second compound 3.16 µM, first compound 0.1 µM
[19] = second compound 3.16 µM, first compound 0.316 µM
[20] = second compound 3.16 µM, first compound 1 µM
[21] = second compound 10 µM, first compound 0.0316 µM
[22] = second compound 10 µM, first compound 0.1 µM
[23] = second compound 10 µM, first compound 0.316 µM
[24] = second compound 10 µM, first compound 1 µM
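Further: spheroids exposed to drugs for one week before readout.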
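Wherever viability, T/C is given: percent viability relative to DMSO vehicle control wells set as 100%.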

## COc1cccc(OCCCN)c1-c1cc(Nc2cnc(C#N)cn2)n[nH]1 + Cc1cccc(N(C)C(=O)C2C(O)CCN2c2nc(C)cc(C(F)(F)F)c2C#N)c1
Second compound 0.0316 µM
  IC50: 56.8 nM
Second compound 0.1 µM
  IC50: 59.4 nM
Second compound 0.316 µM
  IC50: 47.7 nM
Second compound 1 µM
  IC50: 50.4 nM
Second compound 3.16 µM
  IC50: 108 nM
Second compound 10 µM
  IC50: 29 nM
Second compound 0.0316 µM, first compound 0.00316 µM
  viability, T/C: 99.5%
Second compound 0.0316 µM, first compound 0.01 µM
  viability, T/C: 72.9%
[1]
  viability, T/C: 51.1%
[2]
  viability, T/C: 49.4%
[3]
  viability, T/C: 39.5%
[4]
  viability, T/C: 36%
Second compound 0.1 µM, first compound 0.00316 µM
  viability, T/C: 102%
Second compound 0.1 µM, first compound 0.01 µM
  viability, T/C: 81.8%
[5]
  viability, T/C: 54.2%
[6]
  viability, T/C: 47.2%
[7]
  viability, T/C: 46.1%
[8]
  viability, T/C: 37.8%
Second compound 0.316 µM, first compound 0.00316 µM
  viability, T/C: 99.3%
Second compound 0.316 µM, first compound 0.01 µM
  viability, T/C: 61.6%
[9]
  viability, T/C: 59.7%
[10]
  viability, T/C: 43.6%
[11]
  viability, T/C: 44.1%
[12]
  viability, T/C: 30.4%
Second compound 1 µM, first compound 0.00316 µM
  viability, T/C: 96.6%
Second compound 1 µM, first compound 0.01 µM
  viability, T/C: 79.2%
[13]
  viability, T/C: 53.5%
[14]
  viability, T/C: 43.3%
[15]
  viability, T/C: 49.2%
[16]
  viability, T/C: 34.3%
Second compound 3.16 µM, first compound 0.00316 µM
  viability, T/C: 89.4%
Second compound 3.16 µM, first compound 0.01 µM
  viability, T/C: 65.9%
[17]
  viability, T/C: 62.1%
[18]
  viability, T/C: 49.2%
[19]
  viability, T/C: 47.5%
[20]
  viability, T/C: 33.7%
Second compound 10 µM, first compound 0.00316 µM
  viability, T/C: 83.5%
Second compound 10 µM, first compound 0.01 µM
  viability, T/C: 80.9%
[21]
  viability, T/C: 47%
[22]
  viability, T/C: 40.2%
[23]
  viability, T/C: 38.6%
[24]
  viability, T/C: 27.3%

## COc1cccc2c1C(=O)c1c(O)c3c(c(O)c1C2=O)CC(O)(C(=O)CO)CC3OC1CC(N)C(O)C(C)O1 (centres undefined) + Cc1cccc(N(C)C(=O)C2C(O)CCN2c2nc(C)cc(C(F)(F)F)c2C#N)c1
Second compound 0.0316 µM
  IC50: 133 nM
Second compound 0.1 µM
  IC50: 144 nM
Second compound 0.316 µM
  IC50: 138 nM
Second compound 1 µM
  IC50: 102 nM
Second compound 3.16 µM
  IC50: 115 nM
Second compound 10 µM
  IC50: 124 nM
[1]
  viability, T/C: 76.8%
[2]
  viability, T/C: 59.4%
[3]
  viability, T/C: 21%
[4]
  viability, T/C: 2.89%
Second compound 0.0316 µM, first compound 3.16 µM
  viability, T/C: 0.19%
Second compound 0.0316 µM, first compound 10 µM
  viability, T/C: 0.26%
[5]
  viability, T/C: 68.6%
[6]
  viability, T/C: 65%
[7]
  viability, T/C: 18.5%
[8]
  viability, T/C: 3.26%
Second compound 0.1 µM, first compound 3.16 µM
  viability, T/C: 0.2%
Second compound 0.1 µM, first compound 10 µM
  viability, T/C: 0.33%
[9]
  viability, T/C: 79.3%
[10]
  viability, T/C: 61.9%
[11]
  viability, T/C: 19%
[12]
  viability, T/C: 2.18%
Second compound 0.316 µM, first compound 3.16 µM
  viability, T/C: 0.15%
Second compound 0.316 µM, first compound 10 µM
  viability, T/C: 0.25%
[13]
  viability, T/C: 71.6%
[14]
  viability, T/C: 50.4%
[15]
  viability, T/C: 17.4%
[16]
  viability, T/C: 2.2%
Second compound 1 µM, first compound 3.16 µM
  viability, T/C: 0.14%
Second compound 1 µM, first compound 10 µM
  viability, T/C: 0.24%
[17]
  viability, T/C: 82.1%
[18]
  viability, T/C: 54.8%
[19]
  viability, T/C: 15.1%
[20]
  viability, T/C: 2.08%
Second compound 3.16 µM, first compound 3.16 µM
  viability, T/C: 0.25%
Second compound 3.16 µM, first compound 10 µM
  viability, T/C: 0.32%
[21]
  viability, T/C: 70.5%
[22]
  viability, T/C: 58.4%
[23]
  viability, T/C: 14.2%
[24]
  viability, T/C: 1.62%
Second compound 10 µM, first compound 3.16 µM
  viability, T/C: 0.26%
Second compound 10 µM, first compound 10 µM
  viability, T/C: 0.24%
